Results taken from patent US10968231B2, “Substituted cyclyl-acetic acid derivatives for the treatment of metabolic disorders” (TAKEDA PHARMACEUTICAL COMPANY LIMITED, priority 2017, dated 2021).

What follows are compounds tested against T1, human GPR40 (Homo sapiens, UniProt O14842) (assay: Evaluation of human GPR40 agonist activity with increase in intracellular Ca2+ concentration as an index (FLIPR)). Settings: test compound at final concentration of 1 μM; CHO(dhfr−) cells stably expressing human GPR40; 100% = activity of 10 μM of compound of WO 2015/020184 Example 153, 0% = DMSO.
T1 construct: expressed in transfected cells
Format: cell-based
Method: Evaluation of Human GPR40 Agonist Activity with Increase in Intracellular Ca^2+ Concentration as an Index
CHO(dhfr−) cells that stably expressed human GPR40 were suspended in MEMα (Wako Pure Chemical Industries, Ltd.) containing 10% dialyzed serum (Thermo Fisher Scientific), 10 mM HEPES (Thermo Fisher Scientific), 100 U/mL penicillin, 100 μg/mL streptomycin (Wako Pure Chemical Industries, Ltd.), and plated on a 384 well black/clear cell culture plate at 10,000 cells/well. After culture overnight in a CO2 incubator at 37° C., the culture supernatant was removed, and loading buffer [Ca^2+ probe attached to Calcium Kit II-iCellux (DOJINDO) was dissolved in assay buffer (20 mM HEPES, 0.1% fatty acid-free BSA (Wako Pure Chemical Industries, Ltd.), 2.5 mM probenecid (DOJINDO)-containing HBSS (Thermo Fisher Scientific))] was added at 30 μL/well. After leaving for 1 hr at room temperature under light shielding, assay buffer containing the test compound at a final concentration of 1 μM was added at 10 μL/well in fluorescence plate reader FLIPR Tetra (Molecular Devices), and the fluorescence amount was successively measured. Human GPR40 agonist activity was calculated using an increase in the intracellular Ca^2+ concentration as an index, wherein the activity of 10 μM of the compound of WO 2015/020184 (Example 153: 3-cyclopropyl-3-(2-((1-(2-((2-fluoro-2-methylpropyl)(4-methylpyridin-2-yl)carbamoyl)-5-methoxyphenyl)piperidin-4-yl)methoxy)pyridin-4-yl)propanoic acid) was 100%, and the activity when DMSO was added instead of the test compound was 0%.

T1 sequence (O14842 whole entry): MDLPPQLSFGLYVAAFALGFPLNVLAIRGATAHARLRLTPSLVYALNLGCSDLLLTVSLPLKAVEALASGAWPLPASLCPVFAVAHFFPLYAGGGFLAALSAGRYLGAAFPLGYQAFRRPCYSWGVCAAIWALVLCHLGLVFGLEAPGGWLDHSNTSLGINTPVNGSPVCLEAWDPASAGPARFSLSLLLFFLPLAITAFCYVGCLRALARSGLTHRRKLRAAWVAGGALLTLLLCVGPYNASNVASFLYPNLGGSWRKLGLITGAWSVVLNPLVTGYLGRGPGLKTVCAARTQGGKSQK

Structure (SMILES) | activity (human GPR40 agonist activity) [%]
COc1cc(N2CCC(COc3cc4c(cn3)OCCC4CC(=O)O)CC2)c(C2CCN(CC(F)(F)F)CC2)cn1 (single isomer, unassigned) [Example 5, (6-((1-(2-methoxy-5-(1-(2,2,2-trifluoroethyl)piperidin-4-yl)pyridin-4-yl)piperidin-4-yl)methoxy)-3,4-dihydro-2H-pyrano[2,3-c]pyridin-4-yl)acetic acid] | 111
COc1cc(N2CCC(COc3cc4c(cn3)OCCC4CC(=O)O)CC2)c(C2CCN(CC(F)(F)F)CC2)cn1 (single isomer, unassigned) [Example 6, (6-((1-(2-methoxy-5-(1-(2,2,2-trifluoroethyl)piperidin-4-yl)pyridin-4-yl)piperidin-4-yl)methoxy)-3,4-dihydro-2H-pyrano[2,3-c]pyridin-4-yl)acetic acid] | 59
COc1cc(N2CCC(COc3cc4c(cn3)OCCC4CC(=O)O)CC2)c(C2CCN(CC(F)(F)F)CC2)cn1 (single isomer, unassigned) [Example 7, (6-((1-(2-methoxy-5-(1-(2,2,2-trifluoroethyl)piperidin-4-yl)pyridin-4-yl)piperidin-4-yl)methoxy)-3,4-dihydro-2H-pyrano[2,3-c]pyridin-4-yl)acetic acid] | 107
COc1ccc(CCC(F)(F)F)c(N2CCC(COc3cc4c(cn3)OCCC4CC(=O)O)CC2)c1 (stereo not shown) [Example 1, (6-((1-(5-methoxy-2-(3,3,3-trifluoropropyl)phenyl)piperidin-4-yl)methoxy)-3,4-dihydro-2H-pyrano[2,3-c]pyridin-4-yl)acetic acid] | 107
COc1cc(N2CCC(COc3cc4c(cn3)OCCC4CC(=O)O)CC2)c(OCC(F)(F)C(F)(F)F)cn1 (stereo not shown) [Example 2, (6-((1-(2-methoxy-5-(2,2,3,3,3-pentafluoropropoxy)pyridin-4-yl)piperidin-4-yl)methoxy)-3,4-dihydro-2H-pyrano[2,3-c]pyridin-4-yl)acetic acid] | 108
COc1cc(N2CCC(COc3cc4c(cn3)CCC4CC(=O)O)CC2)c(OCC(F)(F)C(F)(F)F)cn1 (stereo not shown) [Example 3, (3-((1-(2-methoxy-5-(2,2,3,3,3-pentafluoropropoxy)pyridin-4-yl)piperidin-4-yl)methoxy)-6,7-dihydro-5H-cyclopenta[c]pyridin-5-yl)acetic acid] | 109
COc1ccc(C2CCN(CC(F)(F)F)CC2)c(N2CCC(COc3cc4c(cn3)CCC4CC(=O)O)CC2)c1 (stereo not shown) [Example 4, (3-((1-(5-methoxy-2-(1-(2,2,2-trifluoroethyl)piperidin-4-yl)phenyl)piperidin-4-yl)methoxy)-6,7-dihydro-5H-cyclopenta[c]pyridin-5-yl)acetic acid] | 108
COc1ccc(CCC(F)(F)F)c(N2CCC(COc3cc4c(cn3)OCCC4CC(=O)O)CC2)c1 (stereo not shown) [Example 8, (6-((1-(5-methoxy-2-(3,3,3-trifluoropropyl)phenyl)piperidin-4-yl)methoxy)-3,4-dihydro-2H-pyrano[2,3-c]pyridin-4-yl)acetic acid] | 103
COc1ccc(C2CCN(CC(F)(F)F)CC2)c(N2CCC(COc3cc4c(cn3)OCCC4CC(=O)O)CC2)c1 (stereo not shown) [Example 9, (6-((1-(5-methoxy-2-(1-(2,2,2-trifluoroethyl)piperidin-4-yl)phenyl)piperidin-4-yl)methoxy)-3,4-dihydro-2H-pyrano[2,3-c]pyridin-4-yl)acetic acid] | 104
COc1ccc(C2CCN(CC(F)(F)F)CC2)c(N2CCC(COc3cc4c(cn3)CCC4CC(=O)O)CC2)c1 (stereo not shown) [Example 10, (3-((1-(5-methoxy-2-(1-(2,2,2-trifluoroethyl)piperidin-4-yl)phenyl)piperidin-4-yl)methoxy)-6,7-dihydro-5H-cyclopenta[c]pyridin-5-yl)acetic acid] | 105
COc1cc(N2CCC(COc3cc4c(cn3)OCCC4CC(=O)O)CC2)c(OCC(F)(F)C(F)(F)F)cn1 (stereo not shown) [Example 11, (6-((1-(2-methoxy-5-(2,2,3,3,3-pentafluoropropoxy)pyridin-4-yl)piperidin-4-yl)methoxy)-3,4-dihydro-2H-pyrano[2,3-c]pyridin-4-yl)acetic acid] | 107
COc1cc(N2CCC(COc3cc4c(cn3)OCCC4CC(=O)O)CC2)c(OCC(F)(F)C(F)(F)F)cn1 (stereo not shown) [Example 17, (6-((1-(2-methoxy-5-(2,2,3,3,3-pentafluoropropoxy)pyridin-4-yl)piperidin-4-yl)methoxy)-3,4-dihydro-2H-pyrano[2,3-c]pyridin-4-yl)acetic acid] | 58
COc1ccc(CCC(F)(F)F)c(N2CCC(COc3cc4c(cn3)OCCC4CC(=O)O)CC2)c1 (stereo not shown) [Example 18, (6-((1-(5-methoxy-2-(3,3,3-trifluoropropyl)phenyl)piperidin-4-yl)methoxy)-3,4-dihydro-2H-pyrano[2,3-c]pyridin-4-yl)acetic acid] | 41
COc1ccc(C2CCN(CC(F)(F)F)CC2)c(N2CCC(COc3cc4c(cn3)OCCC4CC(=O)O)CC2)c1 (stereo not shown) [Example 28, (6-((1-(5-methoxy-2-(1-(2,2,2-trifluoroethyl)piperidin-4-yl)phenyl)piperidin-4-yl)methoxy)-3,4-dihydro-2H-pyrano[2,3-c]pyridin-4-yl)acetic acid] | 54
COc1ccc(C2CCN(CC(F)(F)F)CC2)c(N2CCC(COc3cc4c(cn3)CCC4CC(=O)O)CC2)c1 (stereo not shown) [Example 29, (3-((1-(5-methoxy-2-(1-(2,2,2-trifluoroethyl)piperidin-4-yl)phenyl)piperidin-4-yl)methoxy)-6,7-dihydro-5H-cyclopenta[c]pyridin-5-yl)acetic acid] | 65
COc1ccc(C2CCN(CC(F)(F)F)CC2)c(N2CCC(COc3cc4c(cn3)OCCC4CC(=O)O)CC2)c1 (stereo not shown) [Example 36, (6-((1-(5-methoxy-2-(1-(2,2,2-trifluoroethyl)piperidin-4-yl)phenyl)piperidin-4-yl)methoxy)-3,4-dihydro-2H-pyrano[2,3-c]pyridin-4-yl)acetic acid] | 110
